{"source": "patent US9289471B2", "about": "“Product and process for liquefaction of mucus or sputum” (National Jewish Health, priority 2002, dated 2016)", "test": "Glycoprotein content of sputum aqueous and gel phases by PAS staining", "set-up": "species or system human", "details": "10 or 30 μM Trx with reducing system, 20 min (FIG. 5)", "procedure": "Extraction of soluble glycoproteins from sputum was performed according to methodology outlined by Davies et al. (Davies and Carlstedt, Methods Mol Biol 125:3-13, 2000). 275 μl of CF sputum was treated for 20 minutes at 37° C. with 25 μl of H2O alone or H2O containing Trx (10 or 30 μM)+NADPH (2 mM) and TR (0.1 μM). After treatment, 100 μl of H2O containing 1 mM disopropylflurophosphate and 10 μg ml aprotinin, was added to each sample, followed by 15 minute centrifugation at 22,000 g at 4° C. The resulting supernatant (aqueous phase) of each sample was transferred to a new microcentrifuge tube and stored at −20° C. […]\nThe glycoprotein content of aqueous and gel phase samples were evaluated by staining with periodic acid Schiff reagent (PAS) according to methodology outlined by Thornton et al. (Thornton et al., Methods Mol Biol 125:77-85, 2000). […]\nDisulfide bonds on mucin glycoprotein polymers are potential targets for reduction by Trx. […] After treatment, the resulting soluble and insoluble phases of each sample were separated and analyzed for glycoprotein content by periodic acid/Schiff reagent (PAS) staining Specifically, fractions were loaded and electrophoresed in a 1% agarose (w/v) gel, transferred to PVDF membrane, and stained with periodic acid/Schiff reagent as described in materials and methods. […]", "data": [{"substance": "Trx: Lyophilized recombinant E. coli Trx from Promega; protein disulfide reductase, used with its reducing system (TR + NADPH)", "values": [{"measurement": "amount of PAS-reactive glycoproteins in soluble and gel phases versus diluent", "value": "greater amounts of PAS-reactive glycoproteins"}, {"measurement": "electrophoretic mobility of glycoforms versus diluent-treated samples", "value": "greater electrophoretic mobility"}]}]}
